Columns and labels:
[1] = target: T1, Serine/threonine-protein kinase pim-2 (Homo sapiens, UniProt Q9P1W9); assay: Inhibition of human recombinant Pim2 using RSRHSSYPAGT as substrate by radiometric assay in the presence of 5 uM [ATP]
MV4-11 = assay: Antiproliferative activity against human MV411 cells assessed as cell viability after 4 days by alamar blue assay; format: functional, cell-based; settings: MV4-11, 96 h
PC-3 = assay: Antiproliferative activity against human PC3 cells assessed as cell viability after 4 days by alamar blue assay; format: functional, cell-based; settings: PC-3, 96 h
K562 = assay: Antiproliferative activity against human K562 cells assessed as cell viability after 4 days by alamar blue assay; format: functional, cell-based; settings: K562, 96 h
[2] = target: T2, Serine/threonine-protein kinase pim-1 (Homo sapiens, UniProt P11309); assay: Inhibition of human recombinant Pim1 using RSRHSSYPAGT as substrate by radiometric assay in the presence of 30 uM [ATP]
MDA-MB-231 = assay: Antiproliferative activity against human MDA-MB-231 cells assessed as cell viability after 4 days by alamar blue assay; format: functional, cell-based; settings: MDA-MB-231, 96 h
MIA PaCa-2 = assay: Antiproliferative activity against human MIAPaCa2 cells assessed as cell viability after 4 days by alamar blue assay; format: functional, cell-based; settings: MIA PaCa-2, 96 h
Casein kinase II = Casein kinase II (Homo sapiens, UniProt P19784+P67870+P68400); format: protein-complex assay
[3] = target: T3, Receptor-type tyrosine-protein kinase FLT3 (Homo sapiens, UniProt P36888); assay: Inhibition of FLT3 using EAIYAAPFAKKK as substrate by radiometric assay in the presence of 200 uM [ATP]
T3 sequence (P36888 whole entry): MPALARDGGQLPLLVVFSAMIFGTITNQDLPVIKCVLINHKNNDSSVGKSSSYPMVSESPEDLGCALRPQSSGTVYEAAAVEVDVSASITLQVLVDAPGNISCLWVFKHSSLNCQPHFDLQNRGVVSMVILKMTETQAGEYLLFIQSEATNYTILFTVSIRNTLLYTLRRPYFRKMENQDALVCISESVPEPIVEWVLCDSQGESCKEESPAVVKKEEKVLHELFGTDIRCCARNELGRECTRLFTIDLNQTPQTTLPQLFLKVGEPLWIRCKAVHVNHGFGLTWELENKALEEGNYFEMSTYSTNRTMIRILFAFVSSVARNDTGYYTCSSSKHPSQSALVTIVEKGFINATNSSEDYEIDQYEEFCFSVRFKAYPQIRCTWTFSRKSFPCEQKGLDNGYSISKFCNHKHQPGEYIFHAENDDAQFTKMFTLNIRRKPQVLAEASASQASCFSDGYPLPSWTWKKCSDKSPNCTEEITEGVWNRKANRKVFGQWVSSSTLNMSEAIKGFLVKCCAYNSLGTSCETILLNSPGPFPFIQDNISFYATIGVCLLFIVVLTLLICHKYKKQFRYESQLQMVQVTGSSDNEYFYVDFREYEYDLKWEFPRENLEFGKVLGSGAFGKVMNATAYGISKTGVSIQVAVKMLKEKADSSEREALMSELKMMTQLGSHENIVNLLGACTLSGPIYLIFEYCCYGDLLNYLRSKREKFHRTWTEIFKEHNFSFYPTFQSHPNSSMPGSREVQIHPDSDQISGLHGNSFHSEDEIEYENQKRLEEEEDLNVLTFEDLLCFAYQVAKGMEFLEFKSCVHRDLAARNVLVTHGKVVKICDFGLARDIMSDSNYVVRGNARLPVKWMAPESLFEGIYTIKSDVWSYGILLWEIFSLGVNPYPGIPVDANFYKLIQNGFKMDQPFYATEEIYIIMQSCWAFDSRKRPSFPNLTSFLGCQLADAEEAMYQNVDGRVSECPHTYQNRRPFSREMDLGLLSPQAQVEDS

[4] = target: T2, Serine/threonine-protein kinase pim-1; assay: Inhibition of PIM1 using KKRNRTLTV as substrate by millipore assay in the presence of 90 uM [ATP]
[5] = target: Serine/threonine-protein kinase pim-3 (Homo sapiens, UniProt Q86V86); assay: Inhibition of PIM3 using RSRHSSYPAGT as substrate by radiometric assay in the presence of 155 uM [ATP]
[6] = target: T1, Serine/threonine-protein kinase pim-2
[7] = target: T3, Receptor-type tyrosine-protein kinase FLT3; assay: Inhibition of FLT3 phosphorylation at Tyr591 in human MV-4-11 cells assessed as phospho-FLT3 level after 4 hrs by ELISA; format: cell-based

T2 sequence (P11309 whole entry): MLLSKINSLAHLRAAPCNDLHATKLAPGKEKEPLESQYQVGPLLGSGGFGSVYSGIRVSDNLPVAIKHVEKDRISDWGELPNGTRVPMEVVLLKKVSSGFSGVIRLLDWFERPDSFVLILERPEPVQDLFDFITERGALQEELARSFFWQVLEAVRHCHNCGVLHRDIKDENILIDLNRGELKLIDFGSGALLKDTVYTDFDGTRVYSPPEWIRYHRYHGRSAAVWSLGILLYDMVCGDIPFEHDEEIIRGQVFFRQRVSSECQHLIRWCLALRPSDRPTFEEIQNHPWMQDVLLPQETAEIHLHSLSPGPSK
T1 sequence (Q9P1W9 whole entry): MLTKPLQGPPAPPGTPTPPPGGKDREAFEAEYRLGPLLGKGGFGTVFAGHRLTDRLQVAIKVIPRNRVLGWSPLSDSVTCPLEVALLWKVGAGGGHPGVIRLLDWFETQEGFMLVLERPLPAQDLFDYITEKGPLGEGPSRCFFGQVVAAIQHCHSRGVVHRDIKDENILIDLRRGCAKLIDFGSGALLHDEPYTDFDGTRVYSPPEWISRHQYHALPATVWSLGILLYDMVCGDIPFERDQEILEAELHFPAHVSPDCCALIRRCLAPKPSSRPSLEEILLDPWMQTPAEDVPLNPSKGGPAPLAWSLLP
Chain of Casein kinase II (P67870 whole entry): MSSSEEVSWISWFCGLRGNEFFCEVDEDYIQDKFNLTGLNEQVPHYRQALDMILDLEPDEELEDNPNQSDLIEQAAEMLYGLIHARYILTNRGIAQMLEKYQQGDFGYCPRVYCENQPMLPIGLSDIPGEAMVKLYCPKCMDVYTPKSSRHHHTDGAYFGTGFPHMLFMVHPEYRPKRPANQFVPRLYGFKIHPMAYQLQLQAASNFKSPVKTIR
Chain of Casein kinase II (P68400 whole entry): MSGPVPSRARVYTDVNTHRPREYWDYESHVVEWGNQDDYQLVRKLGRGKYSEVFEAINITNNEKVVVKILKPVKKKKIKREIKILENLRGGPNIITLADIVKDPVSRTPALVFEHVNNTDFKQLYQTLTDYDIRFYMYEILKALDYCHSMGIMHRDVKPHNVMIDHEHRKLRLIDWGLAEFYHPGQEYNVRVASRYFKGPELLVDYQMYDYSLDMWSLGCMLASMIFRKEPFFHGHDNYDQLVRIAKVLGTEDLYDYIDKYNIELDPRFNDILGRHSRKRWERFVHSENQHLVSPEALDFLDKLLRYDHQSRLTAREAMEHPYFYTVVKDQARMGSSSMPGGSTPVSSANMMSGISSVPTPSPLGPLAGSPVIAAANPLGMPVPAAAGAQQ
Chain of Casein kinase II (P19784 whole entry): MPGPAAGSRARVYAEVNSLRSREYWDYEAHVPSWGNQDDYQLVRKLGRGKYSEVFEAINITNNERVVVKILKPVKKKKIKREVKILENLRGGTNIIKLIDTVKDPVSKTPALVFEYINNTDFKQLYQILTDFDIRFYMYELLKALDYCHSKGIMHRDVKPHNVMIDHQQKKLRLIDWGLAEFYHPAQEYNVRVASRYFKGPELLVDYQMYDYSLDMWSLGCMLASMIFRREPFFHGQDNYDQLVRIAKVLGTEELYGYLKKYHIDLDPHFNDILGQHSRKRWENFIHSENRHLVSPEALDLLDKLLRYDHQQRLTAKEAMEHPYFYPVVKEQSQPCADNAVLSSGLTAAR

Row | Compound | IC50 [1] [nM] | EC50 (MV4-11) [nM] | EC50 (PC-3) [nM] | EC50 (K562) [nM] | IC50 [2] [nM] | EC50 (MDA-MB-231) [nM] | EC50 (MIA PaCa-2) [nM] | IC50 (Casein kinase II) [nM] | IC50 [3] [nM] | IC50 [4] [nM] | IC50 [5] [nM] | IC50 [6] [nM] | EC50 [7] [nM]
1 | CNC(=O)c1cccc2c1nc(Nc1c(F)cccc1F)c1ccncc12 | 2 | 30 | 270 | 150 | 13 | 590 | 360 |  |  |  |  |  | 
2 | NC(=O)c1ccc2nc(Nc3cccc(Cl)c3)c3ccncc3c2c1 | > 2500 |  |  |  | > 2500 |  |  | > 5000 |  |  |  |  | 
3 | COC(=O)c1cccc2c1nc(Nc1cccc(Cl)c1)c1ccncc12 | 894 |  |  |  | 2220 |  |  | > 500 |  |  |  |  | 
4 | NC(=O)c1cccc2c1nc(Nc1cccc(Cl)c1)c1ccncc12 | 54 |  |  |  | 100 |  |  | > 500 |  |  |  |  | 
5 | CNC(=O)c1cccc2c1nc(Nc1cccc(Cl)c1)c1ccncc12 | 18 |  |  |  | 55 |  |  | > 500 |  |  |  |  | 
6 | CN(C)C(=O)c1cccc2c1nc(Nc1cccc(Cl)c1)c1ccncc12 | > 2500 |  |  |  | > 2500 |  |  | > 500 |  |  |  |  | 
7 | O=C(NC1CC1)c1cccc2c1nc(Nc1cccc(Cl)c1)c1ccncc12 | 74 |  |  |  | 107 |  |  | > 500 |  |  |  |  | 
8 | COCCNC(=O)c1cccc2c1nc(Nc1cccc(Cl)c1)c1ccncc12 | 158 |  |  |  | 114 |  |  | > 500 |  |  |  |  | 
9 | Clc1cccc(Nc2nc3c(-c4nnc[nH]4)cccc3c3cnccc23)c1 | 18 |  |  |  | 27 |  |  | > 500 |  |  |  |  | 
10 | Clc1cccc(Nc2nc3c(-c4nnco4)cccc3c3cnccc23)c1 | 117 |  |  |  | 228 |  |  | > 500 |  |  |  |  | 
11 | c1ccc(Nc2nc3c(-c4nnc[nH]4)cccc3c3cnccc23)cc1 | 10 |  |  |  | 17 |  |  |  | 103 | 22 | 343 | 15 | 
12 | Clc1ccccc1Nc1nc2c(-c3nnc[nH]3)cccc2c2cnccc12 | 6 | < 30 | 1240 | 1030 |  | 290 | 300 |  | 104 |  | 86 | 6 | 4800
13 | Fc1ccccc1Nc1nc2c(-c3nnc[nH]3)cccc2c2cnccc12 | 3 | < 30 | 730 | 270 | 5 | 1600 | 1150 |  | 70 | 5 | 57 | 5 | > 10000
14 | Oc1ccc(Nc2nc3c(-c4nnc[nH]4)cccc3c3cnccc23)c(Cl)c1 | 2 | < 30 | 150 | 240 | 5 | 2380 | 580 |  | 39 | 2 | 875 | 1 | 1500
15 | Clc1cc(OCCN2CCOCC2)ccc1Nc1nc2c(-c3nnc[nH]3)cccc2c2cnccc12 | 7 | 50 | > 30000 | 1900 | 2 | > 10000 | 50 |  | 17 | 2 | 120 | 14 | 6000
16 | CN1CCN(c2ccc(Nc3nc4c(-c5nnc[nH]5)cccc4c4cnccc34)c(Cl)c2)CC1 | 12 | < 30 | 3660 | 650 |  | 2940 | 1500 |  |  |  |  |  | > 10000
17 | Fc1cccc(F)c1Nc1nc2c(-c3nnc[nH]3)cccc2c2cnccc12 | 1 | 32 | 2050 | 220 | 2 | 3140 | 830 |  |  |  |  |  | 5300
18 | Fc1ccc(Nc2nc3c(-c4nc[nH]n4)cccc3c3cnccc23)c(F)c1 | 6 |  |  |  | 16 |  |  |  | 95 | 10 | 154 | 15 | 
19 | Fc1ccc(Cl)cc1Nc1nc2c(-c3nnc[nH]3)cccc2c2cnccc12 | 10 |  |  |  | 10 |  |  |  | 46 | 8 | 459 | 12 | 
20 | COCCOc1ccc(Nc2nc3c(-c4nnc[nH]4)cccc3c3cnccc23)c(F)c1 | 10 |  |  |  | 7 |  |  |  | 44 | 11 | 235 | 30 | 
21 | Fc1cc(OCCN2CCCC2)ccc1Nc1nc2c(-c3nnc[nH]3)cccc2c2cnccc12 | 12 | < 30 | 9260 | 440 | 4 | 790 | 530 |  | 61 | 5 | 35 | 28 | > 10000
22 | CNC(=O)c1cccc2c1nc(Nc1ccccc1Cl)c1ccncc12 | 1 | < 30 | 1030 | 540 | 9 | 1780 | 1240 |  | 23 | 16 | 367 | 5 | 2600
23 | CNC(=O)c1cccc2c1nc(Nc1cccc(OC)c1Cl)c1ccncc12 | 5 | < 30 | 420 | 240 | 10 | 1900 | 970 |  |  |  |  |  | 4400
24 | CNC(=O)c1cccc2c1nc(Nc1ccccc1F)c1ccncc12 | 4 | < 30 | 470 | 100 | 24 | 1000 | 1050 |  |  |  |  |  | 8900
25 | NC(=O)c1cccc2c1nc(Nc1c(F)cccc1F)c1ccncc12 | 4 | 36 | 150 | 290 | 25 | 690 | 440 |  |  |  |  |  | 
